Measurements: patent US8263344B2, “Compounds regulating calreticulin, KDEL receptor and/or Erp-57 cell surface exposure and uses thereof to evaluate the efficiency of a cancer treatment” (Institut Gustave Roussy, priority 2006, dated 2012)

Experiments:
CT26 tumour cells = assay: Anti-tumour vaccination with treated (dying) CT26 cells and challenge with live tumour cells; assay type: in vivo, BALB/c mice; conditions: dying CT26 cells injected into one flank, rechallenge with live tumour cells in opposite flank 8 days later
CT26 cells = assay: Phagocytosis of tumour cells by dendritic cells (DC); assay type: cell-based, BALB/c mice; conditions: within a few hours after treatment
Protocol: BM cells were flushed from the tibias and femurs of BALB/c mice with culture medium composed of RPMI 1640 medium (Invitrogen Life Technologies) supplemented with 10% heat-inactivated FBS (Invitrogen), sodium pyruvate, 50 μM 2-ME (Sigma), 10 mM HEPES (pH 7.4), and penicillin/streptomycin (Invitrogen). After one centrifugation, BM cells were resuspended in Tris-ammonium chloride for 2 min to lyse RBC. After one more centrifugation, BM cells (1×10^6 cells/ml) were cultured in medium supplemented with 100 ng/ml recombinant mouse FLT3 ligand (R&D systems) in 6-well plates (Costar Corning). After 7 days, the non-adherent and loosely adherent cells were harvested with Versene, washed and transferred in 12-well plates (1.5×10^6 cells/plate) for cocultures with tumour cells.
In 12-well plates, […] adherent CT26 cells were labelled with Celltracker Green (Calbiochem) and then incubated with drugs. In some experiments viable CT26 were coated with 2 μg/10^6 cells of chicken anti-CRT antibody (ABR affinity bioreagents) or an isotype control for 30 min prior to washing and feeding to dendritic cells Cs. Alternatively CT26 cells were coated with 2 μg/10^6 cells of rCRT on ice for 30 min and washed twice prior to addition to dendritic cells. Cells were then harvested, washed three times with medium supplemented with FBS and cocultured with immature DC for 2 hours at a ratio of 1:1 and 1:5. At the end of the incubation, cells were harvested with versene, pooled with non-adherent cells present in the supernatant, washed and stained with CD11c-FITC antibody. Phagocytosis was assessed by FACS analysis of double positive cells. Phagocytic indexes refer to the ratio between values obtained at 4° C. and values obtained at 37° C. of co-incubation between DC and tumour cells.

CT26 tumours [1] = assay: Single intratumoural injection into established CT26 tumours, immunocompetent mice; assay type: in vivo, BALB/c mice; conditions: established 14-day-old CT26 tumours
CT26 tumours [2] = assay: Single intratumoural injection into established CT26 tumours, athymic mice; set-up: species or system nu/nu Balb/c mice; conditions: mouse, in vivo
HeLa cells = assay: Surface ERp57 detection (immunofluorescence, flow cytometry); assay type: cell-based, human; conditions: 2 h; MTX 1 μM, Tau 150 nM
Protocol: HeLa cells were cultured on cover slips (in RPM1160 medium supplemented with 10% fetal calf serum, L-glutamine and antibiotics), in the absence (control) or in the presence of 1 μM mitoxantrone (MTX, Sigma) for 2 h. For the intracellular stainings, HeLa cells were fixed and permeabilised by means of Cytofix/Cytoperm kit from Becton Dickinson according to the manufacturer's instructions. For the surface stainings, HeLa cells were fixed with paraformadehyde (4% w/v) on ice for 5 min. […] Nuclei were labelled with DAPI mounting medium (Vectashield). Fluorescence microscopy was analyzed with a Leica IRE2 equipped with a DC300F camera. Size bars represent 10 μm.
HeLa cells were treated with or without mitoxantrone (MTX, 1 μM) or tautomycin (Tau, 150 nM, Sigma) for 2 h. Cells were washed twice with PBS and fixed in PFA (4% w/v) for 5 min. HeLa cells were stained with an antibody against Erp57 (pAb from Abcam, ab10827) at 1:200 dilution or isotype control, in staining buffer (PBS, 1% FCS) for 30 min on ice, followed by washing. An anti-rabbit Alexa fluor 488 immunoglobulin conjugate (Molecular Probes-Invitrogen) diluted at 1:500 was added for an additional 30 min on ice before washing and analysed by flow cytometry (FACScan, Becton Dickinson). […] The CellQuest software was used to analyse the mean fluorescence intensity (MFI) and the percentage of ERp57 positive cells.
FIG. 12: ERp57 exposure depends on the activation of a caspase. • (A) HeLa cells were treated with MTX (1 μM) for 2 h in the presence or absence of 50 μM zVAD.fmk. The MFI of surface Erp57 positive cells was analysed as described in FIG. 9. • (B) HCT116 parental cells stably transfected with either a vector encoding p35 (Stennicke et al., 2002; Date et al., 2003) or with a PCMV vector (Sigma) as control, were treated with MTX (1 μM) for 2 h. The MFI of surface Erp57 positive cells was analysed as described in FIG. 9. • (C) HCT116 cells were pre-incubated in the presence of 50 μM biotinylated VAD.fmk (Calbiochem) for 2 h. […]

CT26 cytoplasts = assay: CRT exposure on enucleated cells (cytoplasts); assay type: cell-based, murine
Protocol: FIG. 5A: CRT exposure after anthracyclin treatment in the absence of a nucleus. Intact cells or enucleated cells (cytoplasts) were treated for 2 hours with mitoxantrone, followed by immunofluorescence detection of CRT exposure. Inserts show the effective removal of Hoechst 33342-stainable nuclei from the cytoplasts.
Trypsinized CT26 cells were enucleated as described in the publication of Andreau, K. et al. Contagious apoptosis facilitated by the HIV-1 envelope. Fusion-induced cell-to-cell transmission of a lethal signal. J. Cell Sci. 117, 5643-53 (2004). Briefly, cells were treated in 2 ml of complete RPMI medium containing cytochalasin B (10 μg/ml; Sigma) and DNase I (80 U/ml; Sigma). Cell suspension was adjusted to a final concentration of 5×10^6/ml and incubated at 37° C. for 45 minutes before being layered onto a previously prepared discontinuous Ficoll (Pharmacia) density gradient (3 ml of 100%, in 1 ml of 90% and 3 ml of 55% Ficoll Paque layer containing 5 μg/ml cytochalasin B and 40 U/ml DNase I; gradients were prepared in ultracentrifuge tubes and pre-equilibrated at 37° C. in a CO2 incubator overnight). […] Then the cell surface CRT was detected (see materials and methods) and the viability was determined by with propidium iodine staining (2 μg/ml, Sigma) for 5 min followed by cytofluorometric analysis. […] Phagocytosis was assessed by FACS analysis of double positive cells.

MCA205, B16F10, J558 = assay: CRT exposure on a panel of murine tumour cell lines; assay type: cell-based
HeLa, A549, HCT116 = assay: CRT exposure on a panel of human tumour cell lines; assay type: cell-based

O=C1c2c(O)ccc(O)c2C(=O)c2c(NCCNCCO)ccc(NCCNCCO)c21 [mitoxantrone] was tested, and the “immunogenic apoptosis / immunogenic cell death (protection against tumour growth)” value (CT26 tumour cells) was “elicited immunogenic cell death”, the “phagocytosis of treated tumour cells by DC” value (CT26 cells) was “acquired the property to be phagocytosed by DC” and the “therapeutic effect of intratumoural injection, single agent, immunocompetent mice” value (CT26 tumours [1]) was “permanent regression in some but not all cases”. The “therapeutic effect of intratumoural injection, single agent, nu/nu mice” value (CT26 tumours [2]) was “no cure”, the “surface exposure of ERp57” value (HeLa cells) was “appear on the surface” and the “time to CRT exposure in enucleated cells (cytoplasts)” value (CT26 cytoplasts) was no more than 1 h. The “CRT exposure, murine tumour cell lines” value (MCA205, B16F10, J558) was “induced CRT exposure” and the “CRT exposure, human tumour cell lines” value (HeLa, A549, HCT116) was “induced CRT exposure”.
